Assay results: patent US11452717B2, “Small molecule activators of nicotinamide phosphoribosyltransferase (NAMPT) and uses thereof” (Sanford Burnham Prebys Medical Discovery Institute, priority 2017, dated 2022)

The compounds below were run against NAMPT enzyme (Homo sapiens (Human), UniProt P43490) (assay: Enzyme Assay and NMN Detection (NAMPT reaction, fluorescence detection of NMN)). Details: Table B-1; NAMPT activation, NMN formation.
Format: biochemical
How it was run: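 NMN formed was read at ex380/em460 after acetophenone/KOH derivatization and formic acid addition, using a same-day calibration curve. Final conditions: NAMPT 16 nM, nicotinamide 5 uM, PRPP 6.25 uM, ATP 120 uM, pyrophosphatase 0.04 U/ml, pH 7.5 HEPES buffer with MgCl2 and TCEP, 2 h at room temperature.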

NAMPT enzyme, sequence (P43490 whole entry, species assumed): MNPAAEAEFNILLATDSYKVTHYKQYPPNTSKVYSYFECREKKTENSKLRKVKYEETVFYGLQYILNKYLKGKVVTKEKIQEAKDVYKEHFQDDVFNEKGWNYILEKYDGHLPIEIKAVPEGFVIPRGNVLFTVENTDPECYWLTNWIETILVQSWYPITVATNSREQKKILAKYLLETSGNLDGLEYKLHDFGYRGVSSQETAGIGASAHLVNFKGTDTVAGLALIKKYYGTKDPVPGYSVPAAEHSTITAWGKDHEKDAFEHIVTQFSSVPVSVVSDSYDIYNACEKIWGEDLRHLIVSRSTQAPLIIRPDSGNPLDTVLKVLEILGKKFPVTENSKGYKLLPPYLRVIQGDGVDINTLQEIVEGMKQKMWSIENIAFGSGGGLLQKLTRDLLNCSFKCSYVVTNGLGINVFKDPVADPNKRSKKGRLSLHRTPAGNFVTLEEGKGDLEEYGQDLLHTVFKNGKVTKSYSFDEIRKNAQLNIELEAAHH

Row | Structure (SMILES) | EC50 [µM]
1 | COc1ccc(Cn2cc(CNC(=O)Nc3ccc(NS(=O)(=O)c4ccccc4)cc3)cn2)cc1 [N-(4-{3-[1-(4-Methoxy-benzyl)-1H-pyrazol-4-ylmethyl]-ureido}-phenyl)-benzenesulfonamide] | > 20
2 | O=C(NCc1cnco1)Nc1ccc(S(=O)(=O)NCc2ccccc2)cc1 [N-Benzyl-4-(3-oxazol-5-ylmethyl-ureido)-benzenesulfonamide] | 0.1 to 2
3 | O=C(NCc1cn[nH]c1)Nc1ccc(S(=O)(=O)NCc2ccccc2)cc1 [N-Benzyl-4-[3-(1H-pyrazol-4-ylmethyl)-ureido]-benzenesulfonamide] | 0.1 to 2
4 | CC(C)N(Cc1ccccc1)S(=O)(=O)c1ccc(NC(=O)NCc2cnco2)cc1 [N-Benzyl-N-isopropyl-4-(3-oxazol-5-ylmethyl-ureido)-benzenesulfonamide] | < 0.1
5 | CC(C)N(Cc1ccccc1)S(=O)(=O)c1ccc(NC(=O)NCc2nccs2)cc1 [N-Benzyl-N-isopropyl-4-(3-thiazol-2-ylmethyl-ureido)-benzenesulfonamide] | > 20
6 | CC(C)N(Cc1ccccc1)S(=O)(=O)c1ccc(NC(=O)NCc2cncs2)cc1 [N-Benzyl-N-isopropyl-4-(3-thiazol-5-ylmethyl-ureido)-benzenesulfonamide] | < 0.1
7 | CC(C)N(Cc1ccccc1)S(=O)(=O)c1ccc(NC(=O)NCc2cn[nH]c2)cc1 [N-Benzyl-N-isopropyl-4-[3-(1H-pyrazol-4-ylmethyl)-ureido]-benzenesulfonamide] | < 0.1
8 | O=C(NCc1cn[nH]c1)Nc1ccc(S(=O)(=O)NCC2CCC2)cc1 [N-Cyclobutylmethyl-4-[3-(1H-pyrazol-4-ylmethyl)-ureido]-benzenesulfonamide] | 0.1 to 2
9 | CN(C1CCCC1)S(=O)(=O)c1ccc(NC(=O)NCc2cn[nH]c2)cc1 [N-Cyclopentyl-N-methyl-4-[3-(1H-pyrazol-4-ylmethyl)-ureido]-benzenesulfonamide] | 0.1 to 2

Same assay, conditions: Table B-2; NAMPT activation, NMN formation

Row | Structure (SMILES) | EC50 [µM]
10 | CCOc1ccc(NC(=O)c2ccc(NC(=O)NCc3ccncc3)cc2)cc1 [N-(4-ethoxyphenyl)-4-(3-(pyridin-4-ylmethyl)ureido)benzamide] | 0.1 to 2
11 | O=C(NCc1ccncc1)Nc1ccc(C(=O)NCc2ccc(F)cc2)cc1 [N-(4-fluorobenzyl)-4-(3-(pyridin-4-ylmethyl)ureido)benzamide] | > 20
12 | O=C(NCc1ccncc1)Nc1ccc(S(=O)(=O)NCc2ccc(F)cc2)cc1 [N-(4-fluorobenzyl)-4-(3-(pyridin-4-ylmethyl)ureido)benzenesulfonamide] | 0.1 to 2
13 | O=C(NCc1ccncc1)Nc1ccc(C(=O)NCCc2ccc(F)cc2)cc1 [N-(4-fluorophenethyl)-4-(3-(pyridin-4-ylmethyl)ureido)benzamide] | 0.1 to 2
14 | O=C(NCc1ccncc1)Nc1ccc(C(=O)Nc2ccc(F)cc2)cc1 [N-(4-fluorophenyl)-4-(3-(pyridin-4-ylmethyl)ureido)benzamide] | 0.1 to 2
15 | CC(C)Oc1ccc(NC(=O)c2ccc(NC(=O)NCc3ccncc3)cc2)cc1 [N-(4-isopropoxyphenyl)-4-(3-(pyridin-4-ylmethyl)ureido)benzamide] | 0.1 to 2
16 | COc1ccc(NC(=O)c2ccc(NC(=O)NCc3ccncc3)cc2)cc1C [N-(4-methoxy-3-methylphenyl)-4-(3-(pyridin-4-ylmethyl)ureido)benzamide] | 0.1 to 2
17 | COc1ccc(CNC(=O)c2ccc(NC(=O)NCc3ccncc3)cc2)cc1 [N-(4-methoxybenzyl)-4-(3-(pyridin-4-ylmethyl)ureido)benzamide] | > 20
18 | COc1ccc(CNS(=O)(=O)c2ccc(NC(=O)NCc3ccncc3)cc2)cc1 [N-(4-methoxybenzyl)-4-(3-(pyridin-4-ylmethyl)ureido)benzenesulfonamide] | 0.1 to 2
19 | COc1ccc(NC(=O)c2ccc(NC(=O)NCc3ccncc3)cc2)cc1 [N-(4-methoxyphenyl)-4-(3-(pyridin-4-ylmethyl)ureido)benzamide] | 0.1 to 2
20 | Cc1ccc(CNC(=O)c2ccc(NC(=O)NCc3ccncc3)cc2)cc1 [N-(4-methylbenzyl)-4-(3-(pyridin-4-ylmethyl)ureido)benzamide] | > 20
21 | Cc1ccc(CNS(=O)(=O)c2ccc(NC(=O)NCc3ccncc3)cc2)cc1 [N-(4-methylbenzyl)-4-(3-(pyridin-4-ylmethyl)ureido)benzenesulfonamide] | 0.1 to 2
22 | Cc1ccc(CCNC(=O)c2ccc(NC(=O)NCc3ccncc3)cc2)cc1 [N-(4-methylphenethyl)-4-(3-(pyridin-4-ylmethyl)ureido)benzamide] | 0.1 to 2
23 | Cc1cc(NS(=O)(=O)c2ccc(NC(=O)NCc3ccncc3)cc2)no1 [N-(5-Methyl-isoxazol-3-yl)-4-(3-pyridin-4-ylmethyl-ureido)-benzenesulfonamide] | > 20
24 | O=C(NCc1ccncc1)Nc1ccc(C(=O)Nc2ccc3c(c2)OCO3)cc1 [N-(benzo[d][1,3]dioxol-5-yl)-4-(3-(pyridin-4-ylmethyl)ureido)benzamide] | 5 to 20
25 | O=C(NCc1ccncc1)Nc1cccc(S(=O)(=O)NCC2CCC2)c1 [N-(cyclobutylmethyl)-3-(3-(pyridin-4-ylmethyl)ureido)benzenesulfonamide] | > 20
26 | O=C(NCc1ccncc1)Nc1ccc(C(=O)NCC2CCCC2)cc1 [N-(cyclopentylmethyl)-4-(3-(pyridin-4-ylmethyl)ureido)benzamide] | 5 to 20
27 | O=C(NCc1ccncc1)Nc1ccc(C(=O)NCC2CC2)cc1 [N-(cyclopropylmethyl)-4-(3-(pyridin-4-ylmethyl)ureido)benzamide] | 2 to 5
28 | O=C(NCc1ccncc1)Nc1ccc(C(=O)Nc2ccccn2)cc1 [N-(pyridin-2-yl)-4-(3-(pyridin-4-ylmethyl)ureido)benzamide] | 5 to 20
29 | O=C(NCc1ccncc1)Nc1ccc(C(=O)Nc2cccnc2)cc1 [N-(pyridin-3-yl)-4-(3-(pyridin-4-ylmethyl)ureido)benzamide] | > 20

Row | Structure (SMILES) | EC50 [µM]
30 | O=C(NCc1ccncc1)Nc1ccc(C(=O)NCc2ccncc2)cc1 [N-(pyridin-4-ylmethyl)-4-(3-(pyridin-4-ylmethyl)ureido)benzamide] | > 20
31 | CC(C)(C)NS(=O)(=O)c1ccc(NC(=O)NCc2ccncc2)cc1 [N-(tert-butyl)-4-(3-(pyridin-4-ylmethyl)ureido)benzenesulfonamide] | 0.1 to 2
32 | O=C(NCc1ccncc1)Nc1ccc(S(=O)(=O)N(Cc2ccccc2)CC(F)(F)F)cc1 [N-Benzyl-4-(3-pyridin-4-ylmethyl-ureido)-N-(2,2,2-trifluoro-ethyl)-benzenesulfonamide] | < 0.1
33 | O=C(NCc1ccncc1)Nc1ccc(S(=O)(=O)NCc2ccccc2)cc1 [N-Benzyl-4-(3-pyridin-4-ylmethyl-ureido)-benzenesulfonamide] | 0.1 to 2
34 | O=C(NCc1ccncc1)Nc1ccc(S(=O)(=O)N(Cc2ccccc2)C2CC2)cc1 [N-Benzyl-N-cyclopropyl-4-(3-pyridin-4-ylmethyl-ureido)-benzenesulfonamide] | < 0.1
35 | CCN(Cc1ccccc1)S(=O)(=O)c1ccc(NC(=O)NCc2ccncc2)cc1 [N-Benzyl-N-ethyl-4-(3-pyridin-4-ylmethyl-ureido)-benzenesulfonamide] | < 0.1
36 | CC(C)N(Cc1ccccc1)S(=O)(=O)c1ccc(NC(=O)NCc2ccncc2)cc1 [N-Benzyl-N-isopropyl-4-(3-pyridin-4-ylmethyl-ureido)-benzenesulfonamide] | < 0.1
37 | O=C(NCc1ccncc1)Nc1ccc(S(=O)(=O)N(Cc2ccccc2)c2ccccc2)cc1 [N-Benzyl-N-phenyl-4-(3-pyridin-4-ylmethyl-ureido)-benzenesulfonamide] | 0.1 to 2
38 | CCCN(Cc1ccccc1)S(=O)(=O)c1ccc(NC(=O)NCc2ccncc2)cc1 [N-Benzyl-N-propyl-4-(3-pyridin-4-ylmethyl-ureido)-benzenesulfonamide] | < 0.1
39 | O=C(NCc1ccncc1)Nc1ccc(S(=O)(=O)NC2CCC2)cc1 [N-Cyclobutyl-4-(3-pyridin-4-ylmethyl-ureido)-benzenesulfonamide] | 0.1 to 2
40 | O=C(NCc1ccncc1)Nc1ccc(S(=O)(=O)NCC2CCC2)cc1 [N-Cyclobutylmethyl-4-(3-pyridin-4-ylmethyl-ureido)-benzenesulfonamide] | 0.1 to 2
41 | CN(CC1CCC1)S(=O)(=O)c1ccc(NC(=O)NCc2ccncc2)cc1 [N-Cyclobutylmethyl-N-methyl-4-(3-pyridin-4-ylmethyl-ureido)-benzenesulfonamide] | 0.1 to 2
42 | O=C(NCc1ccncc1)Nc1ccc(S(=O)(=O)NC2CCCCC2)cc1 [N-Cyclohexyl-4-(3-pyridin-4-ylmethyl-ureido)-benzenesulfonamide] | 0.1 to 2
43 | CN(C1CCCCC1)S(=O)(=O)c1ccc(NC(=O)NCc2ccncc2)cc1 [N-Cyclohexyl-N-methyl-4-(3-pyridin-4-ylmethyl-ureido)-benzenesulfonamide] | 0.1 to 2
44 | CC(C)CN(C1CCCC1)S(=O)(=O)c1ccc(NC(=O)NCc2ccncc2)cc1 [N-Cyclopentyl-N-isobutyl-4-(3-pyridin-4-ylmethyl-ureido)-benzenesulfonamide] | < 0.1
45 | CN(C1CCCC1)S(=O)(=O)c1ccc(NC(=O)NCc2ccncc2)cc1 [N-Cyclopentyl-N-methyl-4-(3-pyridin-4-ylmethyl-ureido)-benzenesulfonamide] | 0.1 to 2
46 | O=C(NCc1ccncc1)Nc1ccc(S(=O)(=O)NC2CC2)cc1 [N-Cyclopropyl-4-(3-pyridin-4-ylmethyl-ureido)-benzenesulfonamide] | 2 to 5
47 | O=C(NCc1ccncc1)Nc1ccc(S(=O)(=O)NCC2CC2)cc1 [N-Cyclopropylmethyl-4-(3-pyridin-4-ylmethyl-ureido)-benzenesulfonamide] | 0.1 to 2
48 | CC(C)NC(=O)c1ccc(NC(=O)NCc2ccncc2)cc1 [N-Isopropyl-4-(3-(pyridin-4-ylmethyl)ureido)benzamide] | 0.1 to 2

Same assay, conditions: Table B-3; NAMPT activation, NMN formation

Row | Structure (SMILES) | EC50 [µM]
49 | O=C(NCc1ccccc1)Nc1ccc(S(=O)(=O)NCc2ccccc2)cc1 [N-Benzyl-4-(3-benzyl-ureido)-benzenesulfonamide] | > 20
